We go through 26 compounds from patent US20090062294A1, “HETEROARYL-SUBSTITUTED UREA MODULATORS OF FATTY ACID AMIDE HYDROLASE” (priority 2007, published 2009).

Assay [1] deals with T1, rat FAAH (Rattus norvegicus, UniProt P97612).
T1 sequence (P97612 1-579): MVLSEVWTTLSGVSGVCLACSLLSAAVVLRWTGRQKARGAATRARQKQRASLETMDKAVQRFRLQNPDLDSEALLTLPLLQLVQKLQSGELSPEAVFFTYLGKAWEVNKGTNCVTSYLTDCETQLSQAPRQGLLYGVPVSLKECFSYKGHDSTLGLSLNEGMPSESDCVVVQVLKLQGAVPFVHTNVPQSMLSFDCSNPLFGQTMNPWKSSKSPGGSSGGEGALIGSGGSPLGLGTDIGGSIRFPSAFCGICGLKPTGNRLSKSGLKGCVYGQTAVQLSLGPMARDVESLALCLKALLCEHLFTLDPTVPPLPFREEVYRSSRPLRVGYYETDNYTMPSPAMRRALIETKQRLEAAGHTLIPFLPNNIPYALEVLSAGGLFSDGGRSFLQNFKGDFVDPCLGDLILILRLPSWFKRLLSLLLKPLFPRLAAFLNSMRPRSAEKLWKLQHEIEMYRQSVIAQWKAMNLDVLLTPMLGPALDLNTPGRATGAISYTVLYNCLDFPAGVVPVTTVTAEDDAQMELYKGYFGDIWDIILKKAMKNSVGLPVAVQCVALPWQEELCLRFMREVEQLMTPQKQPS
The experiment in a line: Assay Method 2: FAAH assay, 3H-anandamide hydrolysis in homogenate of SK-N-MC cells transfected with rat FAAH. It is filed as biochemical. As to conditions: average of results, > = solubility limit or highest concentration tested. The essentials:
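Read-out is scintillation counting of [3H]-ethanolamine passing through activated charcoal, after 1 h at rt with 80 nM final [3H]-AEA. Enzyme source: lysate of G418-selected SK-N-MC clones expressing rat FAAH, homogenized in Tris/EDTA/glycerol/0.02% Triton buffer, pH 9.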

For assay [2], the target named is T2, FAAH (Homo sapiens, UniProt O00519).
T2 sequence (O00519 1-579): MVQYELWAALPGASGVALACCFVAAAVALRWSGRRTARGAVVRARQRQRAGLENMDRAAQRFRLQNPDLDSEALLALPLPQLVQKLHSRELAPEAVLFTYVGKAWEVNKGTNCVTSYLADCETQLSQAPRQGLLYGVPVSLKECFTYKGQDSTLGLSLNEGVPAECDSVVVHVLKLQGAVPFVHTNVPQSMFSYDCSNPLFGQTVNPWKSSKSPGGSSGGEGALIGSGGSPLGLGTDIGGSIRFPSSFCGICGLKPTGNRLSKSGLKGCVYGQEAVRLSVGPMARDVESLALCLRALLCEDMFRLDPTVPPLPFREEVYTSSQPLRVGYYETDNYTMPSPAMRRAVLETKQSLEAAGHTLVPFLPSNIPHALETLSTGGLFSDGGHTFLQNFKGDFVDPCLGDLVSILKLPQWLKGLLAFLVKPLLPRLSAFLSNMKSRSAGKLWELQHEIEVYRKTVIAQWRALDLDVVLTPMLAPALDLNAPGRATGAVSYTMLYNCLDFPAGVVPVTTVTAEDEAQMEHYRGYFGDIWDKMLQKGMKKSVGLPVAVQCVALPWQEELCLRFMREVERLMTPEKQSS
The experiment in a line: Assay Method 1: FAAH assay, 3H-anandamide hydrolysis in homogenate of T84 cells or SK-N-MC cells transfected with human FAAH. Type of assay: biochemical. As to conditions: average of results, > = solubility limit or highest concentration tested. The essentials:
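Hydrolysis of ^3H-anandamide (80 nM final, added last) was measured over 1 h at rt, using test compound with homogenate of T84 cells or human FAAH-transfected SK-N-MC cells. The homogenization buffer was 125 mM Tris, 1 mM EDTA, 0.02% Triton X-100, pH 9. Unbound labelled ethanolamine was passed through charcoal filters and scintillation-counted.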

pIC50: −log10 of the molar value. Where a name gives a salt, the structure may show the parent alone. Bounds are passed on as bounds.

By pIC50 is commonly meant the negative decadic logarithm of the IC50, by convention in mol/L. The low end stands for a large IC50, the high end for a small IC50.

For `N#Cc1cccc(Oc2cccc(CN3CCN(C(=O)Nc4ccon4)CC3)c2)c1` [Example 139, 4-[3-(3-Cyanophenoxy)benzyl]-N-isoxazol-3-ylpiperazine-1-carboxamide], the pIC50 in assay [1] is less than 5.00; in assay [2] it was 6.07.

`O=C(Nc1ccc(Cl)nn1)N1CCN(Cc2cccc(Oc3cccc(C(F)(F)F)c3)c2)CC1` [Example 44, 4-[3-(3-Trifluoromethyl-phenoxy)-benzyl]-piperazine-1-carboxylic acid (6-chloro-pyridazin-3-yl)-amide trifluoroacetic acid salt]: the values for the negative-log IC50 (pIC50) in assay [1] and in assay [2] were 7.34 and 6.19, respectively.

In the case of `O=C(Nc1ccon1)N1CCN(Cc2cccc(Oc3ccc(S(=O)(=O)C(F)(F)F)cc3)c2)CC1` [Example 158, N-Isoxazol-3-yl-4-(3-{4-[(trifluoromethyl)sulfonyl]phenoxy}benzyl)-piperazine-1-carboxamide], the pIC50 was 6.82 in assay [1] and 8.00 in assay [2].

On to `O=C(Nc1ccon1)N1CCN(Cc2cccc(Oc3ccc(OCC(F)(F)F)cc3)c2)CC1` [Example 137, N-Isoxazol-3-yl-4-{3-[4-(2,2,2-trifluoroethoxy)phenoxy]benzyl}piperazine-1-carboxamide], for which the negative-log IC50 (pIC50) is 6.44 in assay [1] and 7.22 in assay [2].

Consider `O=C(Nc1cnccn1)N1CCN(Cc2ccc3[nH]ccc3c2)CC1` [Example 216, 4-(1H-Indol-5-ylmethyl)-N-pyrazin-2-ylpiperazine-1-carboxamide], for which the negative logarithm of the IC50 (pIC50) in assay [1] and in assay [2] was less than 5.00 throughout.

Consider `O=C(Nc1noc2ccccc12)N1CCN(Cc2cccc(C#Cc3cc(Cl)ccc3Cl)c2)CC1` [Example 84, N-1,2-Benzisoxazol-3-yl-4-{3-[(2,5-dichlorophenyl)ethynyl]benzyl}-piperazine-1-carboxamide], for which the negative logarithm of the IC50 (pIC50) in assay [1] was 6.53; in assay [2] it was 7.80.

For the compound `O=C(Nc1ccon1)N1CCN(Cc2ccc3ccccc3c2)CC1` [Example 144, N-Isoxazol-3-yl-4-(naphthalen-2-ylmethyl)piperazine-1-carboxamide], the pIC50 in assay [1] is 5.52; in assay [2], 6.46.

For `O=C(Nc1noc2ccccc12)N1CCN(Cc2ccc3[nH]ccc3c2)CC1` [Example 118, N-1,2-Benzisoxazol-3-yl-4-(1H-indol-5-ylmethyl)piperazine-1-carboxamide], the pIC50 in assay [1] is 5.10; in assay [2] it was 5.74.

`O=C(Nc1cnccn1)N1CCC(Cc2ccc3ccccc3c2)CC1` [Example 10, 4-Naphthalen-2-ylmethyl-piperidine-1-carboxylic acid pyrazin-2-ylamide trifluoroacetic acid salt]: the pIC50 in assay [1] was 7.44; in assay [2] it was 6.61.

For the compound `O=C(Nc1cccc2nsnc12)N1CCN(Cc2cccc(Oc3ccc(Cl)c(Cl)c3)c2)CC1` [Example 38, 4-[3-(3,4-Dichloro-phenoxy)-benzyl]-piperazine-1-carboxylic acid benzo[1,2,5]thiadiazol-4-ylamide trifluoroacetic acid salt], the negative-log IC50 (pIC50) in assay [1] was 8.05; in assay [2], 7.15.

In the case of `N#CCc1ccccc1C#Cc1cccc(CN2CCN(C(=O)Nc3noc4ccccc34)CC2)c1` [Example 92, N-1,2-Benzisoxazol-3-yl-4-(3-{[2-(cyanomethyl)phenyl]ethynyl}-benzyl)piperazine-1-carboxamide], the pIC50 in assay [1] was 6.58; in assay [2], 7.57.

Take `O=C(Nc1noc2ccccc12)N1CCC(Cc2cccc(C(F)(F)F)c2)CC1` [Example 27, 4-(3-Trifluoromethyl-benzyl)-piperidine-1-carboxylic acid benzo[d]isoxazol-3-ylamide]: the negative logarithm of the IC50 (pIC50) in assay [1] is 7.33; in assay [2], 7.11.

For `O=C(Nc1ccn[nH]1)N1CCC(Cc2ccc3ccccc3c2)CC1` [Example 14, 4-Naphthalen-2-ylmethyl-piperidine-1-carboxylic acid (2H-pyrazol-3-yl)-amide], the negative-log IC50 (pIC50) in assay [1] was 7.20; in assay [2], 6.66.

Turning to `O=C(Nc1noc2ccccc12)N1CCN(Cc2cccc(C#Cc3ccccc3C(F)(F)F)c2)CC1` [Example 64, N-1,2-Benzisoxazol-3-yl-4-(3-{[2-(trifluoromethyl)-phenyl]-ethynyl}benzyl)-piperazine-1-carboxamide], the pIC50 in assay [1] is 7.10; in assay [2], 6.98.

Regarding `O=C(Nc1nn[nH]n1)N1CCN(Cc2cccc(Oc3cccc(C(F)(F)F)c3)c2)CC1` [Example 186, N-2H-Tetrazol-5-yl-4-{3-[3-(trifluoromethyl)phenoxy]benzyl}piperazine-1-carboxamide], the pIC50 in assay [1] is 6.80; in assay [2], 6.48.

Regarding `O=C(Nc1cnccn1)N1CCN(Cc2ccc(Br)c(F)c2)CC1` [Example 222, 4-(4-Bromo-3-fluorobenzyl)-N-pyrazin-2-ylpiperazine-1-carboxamide], the results for the negative-log IC50 (pIC50) in assay [1] and in assay [2] were 6.22 and 6.15, respectively.

With `O=C(Nc1noc2ccccc12)N1CCN(Cc2cccc(C#CC3CC3)c2)CC1` [Example 76, N-1,2-Benzisoxazol-3-yl-4-[3-(cyclopropylethynyl)benzyl]-piperazine-1-carboxamide], the negative-log IC50 (pIC50) was 6.40 in assay [1] and 8.00 in assay [2].

Turning to `O=C(Nc1ccon1)N1CCN(Cc2cccc(Oc3ccc(SC(F)(F)F)cc3)c2)CC1` [Example 155, N-Isoxazol-3-yl-4-(3-{4-[(trifluoromethyl)sulfanyl]phenoxy}benzyl)-piperazine-1-carboxamide], the values for the pIC50 in assay [1] and in assay [2] were 6.57 and 7.70, respectively.

On to `O=C(Nc1noc2ccccc12)N1CCN(Cc2cccc(Oc3ccccc3Cl)c2)CC1` [Example 122, N-1,2-Benzisoxazol-3-yl-4-[3-(2-chlorophenoxy)benzyl]piperazine-1-carboxamide], for which the results for the pIC50 in assay [1] and in assay [2] were 6.94 and 6.83, respectively.

Regarding `O=C(Nc1nccnc1Cl)N1CCN(Cc2cccc(Oc3ccc(Cl)cc3)c2)CC1` [Example 243, 4-[3-(4-Chlorophenoxy)benzyl]-N-(3-chloropyrazin-2-yl)piperazine-1-carboxamide], the values for the negative-log IC50 (pIC50) in assay [1] and in assay [2] were 8.05 and 8.70, respectively.

In the case of `O=C(Nc1noc2ccccc12)N1CCN(Cc2ccc3nc[nH]c3c2)CC1` [Example 100, 4-(1H-Benzimidazol-6-ylmethyl)-N-1,2-benzisoxazol-3-ylpiperazine-1-carboxamide], the pIC50 in assay [1] and in assay [2] was less than 5.00 in each case.

On to `N#Cc1ccc(Oc2cccc(CN3CCN(C(=O)Nc4cnccn4)CC3)c2)cc1C(F)(F)F` [Example 236, 4-{3-[4-Cyano-3-(trifluoromethyl)phenoxy]benzyl}-N-Pyrazin-2-ylpiperazine-1-carboxamide], for which the pIC50 in assay [1] is 5.10; in assay [2], 6.52.

With `O=C(Nc1noc2ccccc12)N1CCN(Cc2ccc(OC(F)(F)F)cc2)CC1` [Example 103, N-1,2-Benzisoxazol-3-yl-4-[4-(trifluoromethoxy)benzyl]piperazine-1-carboxamide], the pIC50 in assay [1] was 6.96; in assay [2] it was 6.92.

With `O=C(Nc1noc2ccccc12)N1CCN(Cc2cccc(Oc3cccc(C(F)(F)F)c3)c2)CC1` [Example 51, 4-[3-(3-Trifluoromethyl-phenoxy)-benzyl]-piperazine-1-carboxylic acid benzo[d]isoxazol-3-ylamide trifluoroacetic acid salt], the pIC50 in assay [1] is 7.54; in assay [2], 7.55.

`N#Cc1ccc(Oc2cccc(CN3CCN(C(=O)Nc4nn[nH]n4)CC3)c2)cc1C(F)(F)F` [Example 170, 4-{3-[4-Cyano-3-(trifluoromethyl)phenoxy]benzyl}-N-1H-tetrazol-5-ylpiperazine-1-carboxamide]: the values for the pIC50 in assay [1] and in assay [2] were 5.74 and 5.92, respectively.

`O=C(Nc1noc2ccccc12)N1CCN(Cc2cccc(Oc3ccc(SC(F)(F)F)cc3)c2)CC1` [Example 130, N-1,2-Benzisoxazol-3-yl-4-(3-{4-[(trifluoromethyl)sulfanyl]phenoxy}-benzyl)piperazine-1-carboxamide]: the values for the pIC50 in assay [1] and in assay [2] were 8.40 and 7.70, respectively.
